Columns and labels:
[1] = system: CHOP/GADD153 and cleaved caspase 3 in 4 MM cell lines; experiment: Western blot of CHOP/GADD153 and cleaved caspase 3 (UPR-mediated apoptosis); assay type: cell-based; details: all 4 MM cell lines
Procedure: Western Blot analysis: Cells are plated at 10^4 cell/cm^−2 for attached cells and 3×10^5/ml for suspension cells and grown under drug treatment for the indicated times. At the end of the treatment period, cells are collected and lysed with 1% SDS in 80 mM Tris-HCL (ph 7.4) buffer supplemented with a proteinase inhibitor cocktail. DNA is fragmented by sonication and protein concentrations are measured by microBCA protein assay kit (Pierce, Rockford, Ill.). Samples are mixed with 3× Laemmli sample buffer (Cell Signaling, Danvers, Mass.) and 40 μg of protein was run on a 12% SDS-polyacrylamide gel. Gels are transferred to nitrocellulose membranes (Amersham, Piscataway, N.J.) and probed with monoclonal rabbit anti-GRP94, anti GRP-78, anti-PDI, anti-CHOP/GADD153, anti-cleaved caspase 3 (Cell Signaling, Danvers, Mass.) and monoclonal mouse anti-β-actin (Sigma, St. Louis, Mo.). Following probing, membranes are washed and incubated with HRP-conjugated secondary antibody (Invitrogen, Carlsbad, Calif.). Following addition of 1:3 diluted femto-chemiluminescent substrate (Pierce, Rockford, Ill.) membranes were exposed to blue autoradiographic film (ISC bioexpress, Kaysville, Utah). Where indicated, membranes were stripped with Stripping Buffer (Pierce, Rockford, Ill.) and reprobed with anti-β-actin (Sigma-Aldrich, St. Louis, Mo.) primary antibody. When needed, the blots were quantified using Bio-Rad gel reader which employs Quality I software (Bio-Rad, Hercules, Calif.).

[2] = system: MM cell lines (MM.1S, 8226, KMS-11); assay type: cell-based
Procedure: Cytotoxicity assay: Cells were incubated for 24 h at 37° C. in 5% CO2 at which time drug treatments began and continued for 24 h. At this time cells were transferred to a tube followed by centrifugation at 400 g for 5 min. The pellets were resuspended in 1 ml of Hanks solution and analyzed by Vi-Cell (Beckman Coulter, Fullerton, Calif., USA) cell viability analyzer.

N#CC(C#N)=NNc1cccc(Cl)c1 [CCCP]
treatment time at which CHOP/GADD153 expression is noted [1]: 3 h | cytotoxicity (cell death) ([2]; 24 h, all 3 MM cell lines): more toxic to MM cells as compared to non-myeloma cells | cell death compared among mitochondrial inhibitors ([2]; concentrations of FIG. 13, caspase 3 cleavage and percent of cell death): more toxic than either antimycin A or oligomycin
